In ChEMBL document CHEMBL4507295 (2021):

Legend:
[1] = molecular target: Alpha-2C adrenergic receptor (Homo sapiens) (UniProt P18825); details: Compound concentration 10.0 uM
[2] = molecular target: 5-hydroxytryptamine receptor 6 (Homo sapiens) (UniProt P50406); details: Compound concentration 10.0 uM
[3] = molecular target: 5-hydroxytryptamine receptor 6 (Homo sapiens) (UniProt P50406); assay: Inhibition of Serotonin (5-Hydroxytryptamine) 5-HT6 at 10 µM in the Eurofins-Panlabs radioligand binding assay (Eurofins_assay_272200); details: Compound concentration 10.0 uM
[4] = molecular target: Vasopressin V2 receptor (Homo sapiens) (UniProt P30518); assay: Vasopressin V2 Eurofins-Panlabs radioligand binding assay; set-up: ligand concentration 0.5 nM; details: Compound concentration 10.0 uM
[5] = species on record: Bos taurus; assay: Phosphodiesterase PDE6 Eurofins-Panlabs enzyme assay; set-up: substrate with concentration [3H] cGMP + cGMP, incubation time 20 min, incubation temperature 25 °C; details: Compound concentration 100.0 uM
[6] = species on record: Homo sapiens; assay: Estrogen ERbeta Eurofins-Panlabs radioligand binding assay; details: Compound concentration 10.0 uM
[7] = species on record: Rattus norvegicus; assay: Inhibition of Glutamate, NMDA, Phencyclidine at 10 µM in the Eurofins-Panlabs radioligand binding assay (Eurofins_assay_233000); format: protein-complex assay; details: Compound concentration 10.0 uM
[8] = molecular target: Histamine H1 receptor (Homo sapiens) (UniProt P35367); details: Compound concentration 10.0 uM
[9] = molecular target: GABA-A receptor; alpha-5/beta-3/gamma-2 (Homo sapiens) (UniProt P18507+P28472+P31644); assay: GABA-alpha5beta3gamma2 Eurofins-Panlabs radioligand binding assay; format: protein-complex assay; set-up: ligand concentration 1 nM; details: Compound concentration 10.0 uM
[10] = molecular target: C-C chemokine receptor type 1 (Homo sapiens) (UniProt P32246); assay: Chemokine CCR1 Eurofins-Panlabs radioligand binding assay; details: Compound concentration 10.0 uM
[11] = molecular target: Somatostatin receptor type 3 (Homo sapiens) (UniProt P32745); assay: Somatostatin sst3 Eurofins-Panlabs radioligand binding assay; details: Compound concentration 10.0 uM
[12] = molecular target: Histamine H3 receptor (Homo sapiens) (UniProt Q9Y5N1); assay: Histamine H3 Eurofins-Panlabs radioligand binding assay; details: Compound concentration 10.0 uM
[13] = molecular target: monoamine oxidase MAO-B (Homo sapiens, UniProt P27338); assay: Inhibition of Monoamine Oxidase MAO-B at compound concentration of 10.0 uM in the Eurofins-Panlabs enzyme assay (Eurofins_assay_140120); set-up: substrate with concentration 50 uM Kynuramine, incubation time 60 min, incubation temperature 37 C; details: recombinant human MAO-B expressed in insect Hi5 cells, probe kynuramine (50 uM), compound concentration 10 uM
[14] = species on record: Bos taurus; assay: Protein Serine/Threonine Kinase, PKA, Non-Selective Eurofins-Panlabs enzyme assay; format: protein-complex assay; set-up: substrate with concentration 370 µg/mL Histone Type III-S, incubation time 15 min, incubation temperature 25 °C; details: Compound concentration 100.0 uM
[15] = molecular target: Somatostatin receptor type 1 (Homo sapiens) (UniProt P30872); assay: Somatostatin sst1 Eurofins-Panlabs radioligand binding assay; set-up: ligand concentration 0.1 nM; details: Compound concentration 10.0 uM
[16] = molecular target: Endothelin-converting enzyme 1 (Homo sapiens) (UniProt P42892); assay: Peptidase, Endothelin Converting Enzyme-1 (ECE-1) Eurofins-Panlabs enzyme assay; details: Compound concentration 10.0 uM
[17] = molecular target: voltage-gated sodium channel, site 2 (Rattus norvegicus, UniProt F1LQQ7+O08562+O88420+O88457+P04774+P04775+P08104+P15389+P15390+Q62968); assay: Inhibition of Sodium Channel, Site 2 at 10 µM in the Eurofins-Panlabs radioligand binding assay (Eurofins_assay_279510); format: protein assay; set-up: ligand concentration 5 nM, non-specific ligand with concentration 100 µM Veratridine, incubation time 60 min, incubation temperature 37 °C; details: male, Wistar, rat whole brain (except cerebellum) membranes, probe [3H] Batrachotoxinin (radioligand, 5 nM), compound concentration 10 uM
[18] = molecular target: Acetylcholinesterase (Homo sapiens) (UniProt P22303); details: Compound concentration 10.0 uM
[19] = molecular target: Glutamate receptor 2 (Homo sapiens) (UniProt P42262); details: Rattus norvegicus; Compound concentration 10.0 uM
[20] = molecular target: Oxytocin receptor (Homo sapiens) (UniProt P30559); assay: Oxytocin Eurofins-Panlabs radioligand binding assay; details: Compound concentration 10.0 uM
[21] = molecular target: T1, Muscarinic acetylcholine receptor M1 (Homo sapiens) (UniProt P11229); details: Compound concentration 10.0 uM
T1 sequence (whole entry): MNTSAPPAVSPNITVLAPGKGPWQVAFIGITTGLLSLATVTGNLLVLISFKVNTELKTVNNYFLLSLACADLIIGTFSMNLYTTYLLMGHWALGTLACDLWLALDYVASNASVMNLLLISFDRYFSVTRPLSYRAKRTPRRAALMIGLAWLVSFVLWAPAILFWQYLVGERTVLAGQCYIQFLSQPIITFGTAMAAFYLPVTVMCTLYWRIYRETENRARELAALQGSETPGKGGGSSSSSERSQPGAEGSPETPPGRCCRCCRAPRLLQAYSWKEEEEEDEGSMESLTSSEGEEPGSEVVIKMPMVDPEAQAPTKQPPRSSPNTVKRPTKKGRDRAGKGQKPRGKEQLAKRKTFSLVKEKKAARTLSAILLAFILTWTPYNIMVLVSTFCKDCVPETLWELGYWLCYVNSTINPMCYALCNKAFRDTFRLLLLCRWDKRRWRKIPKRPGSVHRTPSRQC

[22] = molecular target: Muscarinic acetylcholine receptor M3 (Homo sapiens) (UniProt P20309); details: Compound concentration 10.0 uM
[23] = molecular target: Interstitial collagenase (Homo sapiens) (UniProt P03956); assay: Inhibition of Peptidase, Matrix Metalloproteinase-1 (MMP-1) at 10 µM in the Eurofins-Panlabs enzyme assay (Eurofins_assay_114110); details: Compound concentration 10.0 uM
[24] = molecular target: ATP-sensitive inward rectifier potassium channel 11 (Cricetulus griseus) (UniProt A0A3L7HHE1); assay: Inhibition of Potassium Channel [KATP] at 10 µM in the Eurofins-Panlabs radioligand binding assay (Eurofins_assay_265600); details: Cricetinae; Compound concentration 10.0 uM
[25] = molecular target: Cannabinoid receptor 2 (Homo sapiens) (UniProt P34972); details: Compound concentration 10.0 uM
[26] = molecular target: Glutamate NMDA receptor (Rattus norvegicus) (UniProt P35439+Q00959+Q00960+Q00961+Q62645+Q8VHN2+Q9R1M7); details: Compound concentration 10.0 uM
[27] = molecular target: D(1B) dopamine receptor (Homo sapiens) (UniProt P21918); assay: Dopamine D5 Eurofins-Panlabs radioligand binding assay; details: Compound concentration 10.0 uM
[28] = molecular target: Voltage-dependent N-type calcium channel subunit alpha-1B (Homo sapiens) (UniProt Q00975); assay: Inhibition of Calcium Channel N-Type at 10 µM in the Eurofins-Panlabs radioligand binding assay (Eurofins_assay_216000); details: Rattus norvegicus; Compound concentration 10.0 uM
[29] = molecular target: Galanin receptor type 2 (Homo sapiens) (UniProt O43603); assay: Galanin GAL2 Eurofins-Panlabs radioligand binding assay; set-up: ligand concentration 0.02 nM; details: Compound concentration 10.0 uM
[30] = molecular target: Caspase-8 (Homo sapiens) (UniProt Q14790); assay: Peptidase, CASP8 (Caspase 8) Eurofins-Panlabs enzyme assay; details: Compound concentration 10.0 uM
[31] = molecular target: Prostaglandin E2 receptor EP3 subtype (Homo sapiens) (UniProt P43115); assay: Prostanoid EP3 Eurofins-Panlabs radioligand binding assay; set-up: ligand concentration 0.5 nM, non-specific ligand with concentration 10 µM Prostaglandin EŽ2 (PGE2), incubation time 60 min, incubation temperature 25 °C; details: Compound concentration 10.0 uM
[32] = molecular target: Neutrophil elastase (Homo sapiens) (UniProt P08246); assay: Peptidase, ELA2 (Neutrophil Elastase 2) Eurofins-Panlabs enzyme assay; details: Compound concentration 10.0 uM
[33] = molecular target: Peroxisome proliferator-activated receptor gamma (Homo sapiens) (UniProt P37231); assay: PPARgamma Eurofins-Panlabs radioligand binding assay; set-up: ligand concentration 5 nM, non-specific ligand with concentration 0.5 µM L-797773, incubation time 18 h, incubation temperature 15 °C; details: Compound concentration 10.0 uM
[34] = molecular target: Inositol 1,4,5-trisphosphate-gated calcium channel ITPR1 (Homo sapiens) (UniProt Q14643); assay: Inositol Trisphosphate IP3 Eurofins-Panlabs radioligand binding assay; details: Rattus norvegicus; Compound concentration 10.0 uM
[35] = molecular target: Beta-1 adrenergic receptor (Homo sapiens) (UniProt P08588); details: Compound concentration 10.0 uM
Beta-1 adrenergic receptor (Homo sapiens), sequence (P08588 whole entry, looked up): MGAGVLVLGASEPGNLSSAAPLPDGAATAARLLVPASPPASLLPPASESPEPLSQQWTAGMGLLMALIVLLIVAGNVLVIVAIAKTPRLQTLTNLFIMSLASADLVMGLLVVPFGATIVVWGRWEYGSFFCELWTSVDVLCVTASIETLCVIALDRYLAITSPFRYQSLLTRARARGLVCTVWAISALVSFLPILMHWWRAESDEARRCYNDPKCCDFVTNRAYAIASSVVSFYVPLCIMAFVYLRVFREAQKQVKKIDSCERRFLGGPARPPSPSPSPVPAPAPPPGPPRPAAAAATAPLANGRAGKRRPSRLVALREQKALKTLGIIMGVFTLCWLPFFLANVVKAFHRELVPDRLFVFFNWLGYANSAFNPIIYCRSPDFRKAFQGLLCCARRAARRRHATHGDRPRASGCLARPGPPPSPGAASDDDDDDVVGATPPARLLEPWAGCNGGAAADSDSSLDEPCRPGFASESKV

5-hydroxytryptamine receptor 6 (Homo sapiens), sequence (P50406 whole entry): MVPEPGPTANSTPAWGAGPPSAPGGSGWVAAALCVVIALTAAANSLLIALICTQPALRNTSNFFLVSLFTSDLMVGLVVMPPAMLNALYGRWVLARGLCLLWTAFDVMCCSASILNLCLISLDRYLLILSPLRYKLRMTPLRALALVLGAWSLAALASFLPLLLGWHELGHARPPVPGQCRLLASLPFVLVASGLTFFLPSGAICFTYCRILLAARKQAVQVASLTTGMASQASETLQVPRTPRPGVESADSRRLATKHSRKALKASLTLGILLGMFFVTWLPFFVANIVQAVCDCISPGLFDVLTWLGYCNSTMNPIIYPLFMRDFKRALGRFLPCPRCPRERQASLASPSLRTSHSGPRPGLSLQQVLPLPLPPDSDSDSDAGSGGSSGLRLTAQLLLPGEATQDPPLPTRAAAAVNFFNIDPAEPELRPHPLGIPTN
D(1B) dopamine receptor (Homo sapiens), sequence (P21918 whole entry): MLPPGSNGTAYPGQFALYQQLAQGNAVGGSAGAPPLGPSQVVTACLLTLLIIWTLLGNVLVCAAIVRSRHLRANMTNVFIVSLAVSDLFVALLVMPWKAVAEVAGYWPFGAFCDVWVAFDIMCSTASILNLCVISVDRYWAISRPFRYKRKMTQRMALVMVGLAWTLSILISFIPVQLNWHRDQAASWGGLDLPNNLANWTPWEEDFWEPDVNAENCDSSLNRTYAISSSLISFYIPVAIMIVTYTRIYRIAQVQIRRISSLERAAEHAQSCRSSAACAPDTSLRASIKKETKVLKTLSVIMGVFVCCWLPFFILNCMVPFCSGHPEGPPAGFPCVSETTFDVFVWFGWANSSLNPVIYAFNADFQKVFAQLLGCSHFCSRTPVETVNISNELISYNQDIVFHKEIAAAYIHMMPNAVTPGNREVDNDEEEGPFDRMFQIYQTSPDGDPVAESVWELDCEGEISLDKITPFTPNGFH
Muscarinic acetylcholine receptor M3 (Homo sapiens), sequence (P20309 whole entry, looked up): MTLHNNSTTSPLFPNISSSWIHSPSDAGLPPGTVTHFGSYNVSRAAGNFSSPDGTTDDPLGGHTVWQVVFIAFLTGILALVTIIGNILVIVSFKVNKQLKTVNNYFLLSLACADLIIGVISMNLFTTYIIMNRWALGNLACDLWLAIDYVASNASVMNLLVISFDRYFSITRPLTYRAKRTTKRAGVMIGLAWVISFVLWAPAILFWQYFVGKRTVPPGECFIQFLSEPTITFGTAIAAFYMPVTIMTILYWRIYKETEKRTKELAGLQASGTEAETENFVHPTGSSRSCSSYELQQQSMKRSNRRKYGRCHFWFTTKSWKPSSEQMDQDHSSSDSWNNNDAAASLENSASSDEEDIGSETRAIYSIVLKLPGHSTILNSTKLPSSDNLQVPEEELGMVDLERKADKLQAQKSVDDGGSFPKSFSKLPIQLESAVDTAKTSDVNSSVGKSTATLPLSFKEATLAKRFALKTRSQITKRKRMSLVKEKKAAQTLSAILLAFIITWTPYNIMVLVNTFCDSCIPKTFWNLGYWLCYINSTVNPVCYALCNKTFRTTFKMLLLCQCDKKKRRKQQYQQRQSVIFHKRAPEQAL
Histamine H1 receptor (Homo sapiens), sequence (P35367 whole entry): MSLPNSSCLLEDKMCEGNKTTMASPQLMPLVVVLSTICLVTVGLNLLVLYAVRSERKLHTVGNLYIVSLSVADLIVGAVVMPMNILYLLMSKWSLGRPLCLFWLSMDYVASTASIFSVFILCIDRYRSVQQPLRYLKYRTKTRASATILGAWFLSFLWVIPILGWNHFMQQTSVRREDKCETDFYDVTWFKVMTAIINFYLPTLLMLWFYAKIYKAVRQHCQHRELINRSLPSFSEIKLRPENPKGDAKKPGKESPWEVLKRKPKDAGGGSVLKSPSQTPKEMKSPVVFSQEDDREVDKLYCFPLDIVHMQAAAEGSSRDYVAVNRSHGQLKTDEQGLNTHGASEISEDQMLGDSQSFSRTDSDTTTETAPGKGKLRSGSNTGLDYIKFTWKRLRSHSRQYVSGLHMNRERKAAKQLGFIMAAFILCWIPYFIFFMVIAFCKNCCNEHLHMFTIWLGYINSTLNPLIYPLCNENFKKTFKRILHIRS
Glutamate receptor 2 (Homo sapiens), sequence (P42262 whole entry): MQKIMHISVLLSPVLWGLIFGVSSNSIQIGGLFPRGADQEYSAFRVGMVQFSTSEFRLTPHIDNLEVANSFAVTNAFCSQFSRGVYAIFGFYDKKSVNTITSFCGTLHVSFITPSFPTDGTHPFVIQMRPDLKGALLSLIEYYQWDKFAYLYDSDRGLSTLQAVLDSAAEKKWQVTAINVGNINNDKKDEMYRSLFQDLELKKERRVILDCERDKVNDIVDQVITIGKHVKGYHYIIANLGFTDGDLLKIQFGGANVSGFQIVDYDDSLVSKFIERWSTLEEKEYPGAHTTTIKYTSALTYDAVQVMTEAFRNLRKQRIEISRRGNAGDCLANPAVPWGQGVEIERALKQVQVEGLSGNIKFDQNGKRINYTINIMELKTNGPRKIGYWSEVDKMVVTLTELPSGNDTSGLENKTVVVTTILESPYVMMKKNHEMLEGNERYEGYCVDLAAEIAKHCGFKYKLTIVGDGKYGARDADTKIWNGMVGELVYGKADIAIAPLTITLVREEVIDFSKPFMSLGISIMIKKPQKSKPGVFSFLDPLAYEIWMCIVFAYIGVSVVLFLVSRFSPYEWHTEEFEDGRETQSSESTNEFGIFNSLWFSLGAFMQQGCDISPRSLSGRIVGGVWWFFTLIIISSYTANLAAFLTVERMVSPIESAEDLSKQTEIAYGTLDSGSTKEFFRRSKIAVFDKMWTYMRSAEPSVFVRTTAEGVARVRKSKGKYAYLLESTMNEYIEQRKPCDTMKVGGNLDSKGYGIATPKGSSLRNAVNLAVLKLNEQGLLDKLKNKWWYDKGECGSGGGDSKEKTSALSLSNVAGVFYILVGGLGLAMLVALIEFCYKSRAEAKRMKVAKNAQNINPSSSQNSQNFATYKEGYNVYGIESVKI
Somatostatin receptor type 3 (Homo sapiens), sequence (P32745 whole entry): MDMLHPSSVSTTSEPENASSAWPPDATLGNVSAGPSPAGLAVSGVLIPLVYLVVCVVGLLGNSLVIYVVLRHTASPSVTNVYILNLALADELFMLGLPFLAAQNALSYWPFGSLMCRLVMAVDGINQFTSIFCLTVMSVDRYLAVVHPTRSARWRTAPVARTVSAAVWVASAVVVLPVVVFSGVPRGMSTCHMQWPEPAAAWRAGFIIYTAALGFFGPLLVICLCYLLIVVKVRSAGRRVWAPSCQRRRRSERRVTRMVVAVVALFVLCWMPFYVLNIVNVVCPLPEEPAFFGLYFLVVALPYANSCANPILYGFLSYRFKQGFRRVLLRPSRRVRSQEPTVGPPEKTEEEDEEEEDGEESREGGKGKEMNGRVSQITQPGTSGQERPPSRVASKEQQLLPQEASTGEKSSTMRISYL
Endothelin-converting enzyme 1 (Homo sapiens), sequence (P42892 whole entry): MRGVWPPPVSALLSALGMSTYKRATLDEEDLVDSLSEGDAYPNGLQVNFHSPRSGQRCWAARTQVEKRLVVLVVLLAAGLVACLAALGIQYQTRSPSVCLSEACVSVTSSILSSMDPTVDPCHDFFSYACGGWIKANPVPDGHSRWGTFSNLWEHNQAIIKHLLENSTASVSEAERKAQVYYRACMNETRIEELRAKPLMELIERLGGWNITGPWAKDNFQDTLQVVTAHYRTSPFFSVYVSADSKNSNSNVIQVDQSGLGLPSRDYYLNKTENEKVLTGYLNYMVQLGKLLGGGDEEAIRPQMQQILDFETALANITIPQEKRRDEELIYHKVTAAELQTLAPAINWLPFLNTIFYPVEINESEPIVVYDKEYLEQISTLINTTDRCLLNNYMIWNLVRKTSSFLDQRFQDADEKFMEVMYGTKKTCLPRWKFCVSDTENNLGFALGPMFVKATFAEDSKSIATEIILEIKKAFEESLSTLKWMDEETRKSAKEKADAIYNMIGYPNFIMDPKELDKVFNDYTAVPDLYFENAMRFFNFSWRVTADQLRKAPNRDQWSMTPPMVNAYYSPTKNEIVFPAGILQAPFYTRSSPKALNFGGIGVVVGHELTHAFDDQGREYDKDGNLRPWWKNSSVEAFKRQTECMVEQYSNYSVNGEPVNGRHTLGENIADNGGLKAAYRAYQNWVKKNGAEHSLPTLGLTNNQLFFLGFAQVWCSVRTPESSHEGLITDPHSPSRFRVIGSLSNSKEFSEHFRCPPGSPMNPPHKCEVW
Prostaglandin E2 receptor EP3 subtype (Homo sapiens), sequence (P43115 whole entry): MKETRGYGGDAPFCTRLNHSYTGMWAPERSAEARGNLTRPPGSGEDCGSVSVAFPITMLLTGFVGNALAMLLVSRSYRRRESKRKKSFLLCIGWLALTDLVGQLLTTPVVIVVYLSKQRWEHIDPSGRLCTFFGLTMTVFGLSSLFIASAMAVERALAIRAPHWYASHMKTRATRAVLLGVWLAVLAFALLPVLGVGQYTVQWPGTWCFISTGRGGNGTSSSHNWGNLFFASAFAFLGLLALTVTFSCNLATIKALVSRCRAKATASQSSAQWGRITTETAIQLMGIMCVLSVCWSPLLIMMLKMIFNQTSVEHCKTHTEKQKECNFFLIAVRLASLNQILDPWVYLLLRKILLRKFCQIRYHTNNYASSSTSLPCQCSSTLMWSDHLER

`N#CC1(c2ccccn2)CCN(Cc2cc(C(=O)N3CCCC3)c(=O)n3ccccc23)CC1` was tested, and the inhibition [1] was 1.13% and the inhibition [2] was 2.79%.

`N#CC1(c2ccccn2)CCN(Cc2cc(C(=O)O)c(=O)n3ccccc23)CC1` [MSD-M1PAM] was tested, and the inhibition [3] was 11%, the inhibition [4] was -2% and the inhibition [5] was 5%. For the same molecule, the inhibition [6] was 8%, the inhibition [7] was 11% and the inhibition [8] was 5%. It also gave an inhibition [9] of 14%, an inhibition [10] of 8% and an inhibition [11] of 2%. For the same molecule, the inhibition [12] was -9%, the inhibition at 60 min, 10 µM [13] was -5% (not active) and the inhibition [14] was 24%. The inhibition [15] was -3%, the inhibition [16] was 45% and the inhibition at 60 min, 10 µM [17] was 4% (not active). It also gave an inhibition [18] of 1%, an inhibition [19] of -7% and an inhibition [20] of -5%. It also gave an inhibition [21] of 3%, an inhibition [22] of -6.58% and an inhibition [23] of 15%. For the same molecule, the inhibition [24] was 1%, the inhibition [25] was 0% and the inhibition [26] was 25%. It also gave an inhibition [27] of 2%, an inhibition [28] of -3% and an inhibition [29] of 4%. It also gave an inhibition [30] of 9%, an inhibition [31] of 3% and an inhibition [32] of 9%. For the same molecule, the inhibition [33] was 10%, the inhibition [34] was -3% and the inhibition [35] was 2%.
